According to article PMC9501810, “Bitter Peptides YFYPEL, [sequence], and [sequence], Released during Gastric Digestion of Casein, Stimulate Mechanisms of Gastric Acid Secretion via Bitter Taste Receptors TAS2R16 and TAS2R38” (Journal of Agricultural and Food Chemistry, 2022):

Assays:
Assay type in all cases: cell-based, human
[1] = tested on: TAS2R38; assay: RT-qPCR gene expression of TAS2R38 in HGT-1 cells; conditions: VAPFPEVF 17.5 µM, YFYPEL 0.03 µM, YQEPVLGPVRGPFPIIV 0.4 µM, normalized to PPIA and GAPDH and untreated cells, mean, n = 3–5
Protocol: For mRNA expression analysis, 800,000 cells were seeded in a T25 cell culture flask (25 cm^2) 1 day before the experiment. After incubation with 17.5 μM […], 0.03 μM YFYPEL, or 0.4 μM […] for 15, 30, 60, and 120 min, RNA was isolated using the peqGOLD RNA Kit (VWR Peqlab, USA) following the manufacturer’s protocol. Determination of RNA concentration (A260/A280 between 2.03 and 2.09) was performed on a NanoDrop One^c (Thermo Fisher Scientific Inc., USA). RNA integrity number (RIN 9.9–10.0, version 2.6, assay class Eukaryote Total RNA Nano) was analyzed using a 2100 Bioanalyzer (Agilent Technologies, USA). Removal of gDNA and synthesis of cDNA were performed using the iScript gDNA Clear cDNA Synthesis Kit (BioRad, Feldkirchen, Germany) following the manufacturer’s protocol. Real-time-qPCR (RT-qPCR) was performed with 50 ng cDNA amplified with SsoAdvanced Universal SYBR Green Supermix (Bio-Rad Laboratories, Inc., USA). The sequences of the forward and reverse primers of the 25 TAS2Rs were taken from Liszt et al.([13]) (Supporting Information Table-SI 3). Verified primers for the TAS1Rs (TAS1R1: qHsaCID0013443; TAS1R2: qHsaCID0016106; TAS1R3: qHsaCED0002321) and for MAPK1 (qHsaCEP0050000) were obtained from Bio-Rad Laboratories. PPIA[37] and GAPDH[38] were used as reference genes. The effects of the peptides on gene expression were analyzed in comparison to untreated control cells. […]

[2] = tested on: TAS1R3; assay: RT-qPCR gene expression of TAS1R3 in HGT-1 cells; conditions: 15/30/60/120 min, VAPFPEVF 17.5 µM, YQEPVLGPVRGPFPIIV 0.4 µM, n = 3
Protocol: (§1) For mRNA expression analysis, 800,000 cells were seeded in a T25 cell culture flask (25 cm^2) 1 day before the experiment. After incubation with 17.5 μM […], 0.03 μM YFYPEL, or 0.4 μM […] for 15, 30, 60, and 120 min, RNA was isolated using the peqGOLD RNA Kit (VWR Peqlab, USA) following the manufacturer’s protocol. Determination of RNA concentration (A260/A280 between 2.03 and 2.09) was performed on a NanoDrop One^c (Thermo Fisher Scientific Inc., USA). RNA integrity number (RIN 9.9–10.0, version 2.6, assay class Eukaryote Total RNA Nano) was analyzed using a 2100 Bioanalyzer (Agilent Technologies, USA). Removal of gDNA and synthesis of cDNA were performed using the iScript gDNA Clear cDNA Synthesis Kit (BioRad, Feldkirchen, Germany) following the manufacturer’s protocol. Real-time-qPCR (RT-qPCR) was performed with 50 ng cDNA amplified with SsoAdvanced Universal SYBR Green Supermix (Bio-Rad Laboratories, Inc., USA). The sequences of the forward and reverse primers of the 25 TAS2Rs were taken from Liszt et al.([13]) (Supporting Information Table-SI 3). Verified primers for the TAS1Rs (TAS1R1: qHsaCID0013443; TAS1R2: qHsaCID0016106; TAS1R3: qHsaCED0002321) and for MAPK1 (qHsaCEP0050000) were obtained from Bio-Rad Laboratories. PPIA[37] and GAPDH[38] were used as reference genes. The effects of the peptides on gene expression were analyzed in comparison to untreated control cells.

[3] = tested on: TAS2R5; assay: RT-qPCR gene expression of TAS2R5 in HGT-1 cells; conditions: VAPFPEVF 17.5 µM, YFYPEL 0.03 µM, YQEPVLGPVRGPFPIIV 0.4 µM, normalized to PPIA and GAPDH and untreated cells, mean, n = 3–5
Protocol: as §1

[4] = tested on: TAS2R39; assay: RT-qPCR gene expression of TAS2R39 in HGT-1 cells; conditions: VAPFPEVF 17.5 µM, YFYPEL 0.03 µM, YQEPVLGPVRGPFPIIV 0.4 µM, normalized to PPIA and GAPDH and untreated cells, mean, n = 3–5
Protocol: as §1

[5] = tested on: HGT-1 cells; assay: Proton secretion assay (intracellular proton index IPX, SNARF-1-AM)
Protocol: The measurement of proton secretion from HGT-1 cells represents a well-established model for the identification of bitter compounds. By affecting extraoral bitter taste receptors with bitter compounds, a modulatory effect on proton secretion can be measured. For this purpose, cells were washed with KRHB and incubated with 3 μM of the intracellular pH indicator 1,5 carboxy-seminaphto-rhodafluor acetoxymethyl ester (SNARF-1-AM) under standard conditions. After 30 min, the cells were washed again with KRHB and then incubated with casein (0.01–10 μM equimolar related to the relevant forms αS1- and β-casein), hydrolysate (0.01–10 μM), or the peptides (0.01–200 μM). […] All substances were dissolved and diluted in KRHB. 1 mM histamine was used as a positive control. Measurements were performed using FlexStation 3 (Molecular Devices, USA). The excitation wavelength was 488 nm, and the emission wavelengths were 580 and 640 nm. For calibration (pH range 7.0–8.0), the intracellular and extracellular pH was adjusted with 2 μM nigericin in potassium buffer (20 mM NaCl, 110 mM KCl, 1 mM CaCl2, 1 mM MgSO4, 18 mM D-glucose, and 20 mM HEPES). The intracellular proton index (IPX) was calculated as the log2 value of the 580/640 ratio and compared with cells without treatment. Negative values represent increased secretion of protons and therefore stimulation of mechanisms regulating gastric acid secretion in HGT-1 cells. In contrast, positive values represent an inhibition of secretion compared to the untreated control.

[6] = tested on: TAS2R14; assay: RT-qPCR gene expression of TAS2R14 in HGT-1 cells; conditions: VAPFPEVF 17.5 µM, YFYPEL 0.03 µM, YQEPVLGPVRGPFPIIV 0.4 µM, normalized to PPIA and GAPDH and untreated cells, mean, n = 3–5
Protocol: as §1

[7] = tested on: TAS2R19; assay: RT-qPCR gene expression of TAS2R19 in HGT-1 cells; conditions: VAPFPEVF 17.5 µM, YFYPEL 0.03 µM, YQEPVLGPVRGPFPIIV 0.4 µM, normalized to PPIA and GAPDH and untreated cells, mean, n = 3–5
Protocol: as §1

[8] = tested on: TAS2R20; assay: RT-qPCR gene expression of TAS2R20 in HGT-1 cells; conditions: VAPFPEVF 17.5 µM, YFYPEL 0.03 µM, YQEPVLGPVRGPFPIIV 0.4 µM, normalized to PPIA and GAPDH and untreated cells, mean, n = 3–5
Protocol: as §1

[9] = tested on: TAS2R45; assay: RT-qPCR gene expression of TAS2R45 in HGT-1 cells; conditions: VAPFPEVF 17.5 µM, YFYPEL 0.03 µM, YQEPVLGPVRGPFPIIV 0.4 µM, normalized to PPIA and GAPDH and untreated cells, mean, n = 3–5
Protocol: as §1

Sequence: YQEPVLGPVRGPFPIIV [bitter casein peptide βA1/A2-CN193–209]
- change in gene expression of TAS2R38 ([1]; incubation 15 min): 2.01 fold change
- change in gene expression of TAS2R38 ([1]; incubation 30 min): 3.71 fold change
- change in gene expression of TAS2R38 ([1]; incubation 60 min): 2.05 fold change
- change in gene expression of TAS2R38 ([1]; incubation 120 min): 2.38 fold change
- change in expression of TAS1R3 [2]: no significant effect
- change in gene expression of TAS2R5 ([3]; incubation 15 min): 1.25 fold change
- change in gene expression of TAS2R5 ([3]; incubation 30 min): 1.45 fold change
- change in gene expression of TAS2R5 ([3]; incubation 60 min): 1.39 fold change
- change in gene expression of TAS2R5 ([3]; incubation 120 min): 1.22 fold change
- change in gene expression of TAS2R39 ([4]; incubation 15 min): 0.53 fold change
- change in gene expression of TAS2R39 ([4]; incubation 30 min): 1.16 fold change
- change in gene expression of TAS2R39 ([4]; incubation 60 min): 0.73 fold change
- change in gene expression of TAS2R39 ([4]; incubation 120 min): 0.53 fold change
- ΔIPX (change in intracellular proton index vs untreated cells) ([5]; 0.1 µM, 10 min incubation in KRHB, IPX = log2 of 580/640 ratio, negative = stimulated proton secretion, mean ± SEM, n = 4–8): −0.203 ± 0.048
- proton secretion with peptide alone compared to untreated control cells ([5]; VAPFPEVF 17.5 µM, YFYPEL 0.03 µM, YQEPVLGPVRGPFPIIV 0.4 µM, 10 min, p < 0.01): increased proton secretion
- concentration with the lowest IPX value (minimum of curve fit; highest impact on secretory activity) ([5]; curve fit over 0.01–200 µM proton secretion profile): 0.4 µM
- ΔIPX on co-incubation with probenecid ([5]; peptide (VAPFPEVF 17.5 µM, YFYPEL 0.03 µM, YQEPVLGPVRGPFPIIV 0.4 µM) + 1 mM probenecid, 10 min, vs untreated cells, mean ± SEM): −0.020 ± 0.036
- change in gene expression of TAS2R14 ([6]; incubation 15 min): 0.85 fold change
- change in gene expression of TAS2R14 ([6]; incubation 30 min): 1.08 fold change
- change in gene expression of TAS2R14 ([6]; incubation 60 min): 1.03 fold change
- change in gene expression of TAS2R14 ([6]; incubation 120 min): 1.08 fold change
- change in gene expression of TAS2R19 ([7]; incubation 15 min): 0.85 fold change
- change in gene expression of TAS2R19 ([7]; incubation 30 min): 1.58 fold change
- change in gene expression of TAS2R19 ([7]; incubation 60 min): 1.27 fold change
- change in gene expression of TAS2R19 ([7]; incubation 120 min): 1.05 fold change
- change in gene expression of TAS2R20 ([8]; incubation 15 min): 0.95 fold change
- change in gene expression of TAS2R20 ([8]; incubation 30 min): 1.42 fold change
- change in gene expression of TAS2R20 ([8]; incubation 60 min): 1.38 fold change
- change in gene expression of TAS2R20 ([8]; incubation 120 min): 1.31 fold change
- change in gene expression of TAS2R45 ([9]; incubation 15 min): 0.63 fold change
- change in gene expression of TAS2R45 ([9]; incubation 30 min): 1.25 fold change
- change in gene expression of TAS2R45 ([9]; incubation 60 min): 1.06 fold change
- change in gene expression of TAS2R45 ([9]; incubation 120 min): 0.84 fold change
